This is an account of results in patent US20090030039A1, “Piperidine Derivatives as Cxcr3 Receptor Antagonists” (priority 2006, published 2009).

One may read the pIC50 as the negative decadic logarithm of the IC50, by convention in mol/L.

The experiment has as its target T1, human CXCR3 (Homo sapiens, UniProt P49682).
T1 construct: expressed in transfected cells; host or cells: CHO cells (membrane preparation)
T1 sequence (P49682 1-368): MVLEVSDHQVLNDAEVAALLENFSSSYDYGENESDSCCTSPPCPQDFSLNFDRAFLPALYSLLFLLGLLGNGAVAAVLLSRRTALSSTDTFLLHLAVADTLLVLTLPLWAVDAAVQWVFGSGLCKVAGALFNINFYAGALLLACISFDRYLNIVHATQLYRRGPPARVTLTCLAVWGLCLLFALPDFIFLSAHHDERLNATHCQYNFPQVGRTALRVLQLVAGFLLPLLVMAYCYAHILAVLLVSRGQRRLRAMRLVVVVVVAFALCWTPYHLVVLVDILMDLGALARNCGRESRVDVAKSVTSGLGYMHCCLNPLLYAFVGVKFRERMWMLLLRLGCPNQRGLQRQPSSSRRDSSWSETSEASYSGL
Kind of experiment: [35S]GTPγS exchange assay, CXCR3 receptor inhibition (hI-TAC-induced GTPγS-binding). It counts as biochemical. As to the method: CXCR3 Receptor Inhibition was Examined in a [^35S]GTPγS Exchange Assay
The exchange of guanosine 5′-[^35S]triphosphate was measured on membranes of human CXCR3-transfected CHO cells. [^35S]GTPγS exchange assays were performed in 96-well plates with 10 μg of membrane protein/well using basic flashplates (Perkin Elmer). Compounds were dissolved in DMSO and diluted with incubation buffer to yield required concentrations with 9% DMSO. Incubation buffer is composed of 20 mM HEPES, 100 mM NaCl, 3 μM GDP and 1 mM MgCl2, pH 7.4. […] Compound, membranes, hI-TAC (interferon-inducible T-cell alpha chemoattractant) and [^35S]GTPγS were added in a total volume of 200 μl. First, 20 μl of the appropriate compound dilution and 140 μl membranes from CXCR3-CHO cells were dissolved in membrane incubation buffer and pre-incubated for 30 minutes at 30° C. Then, 20 μl of hI-TAC dissolved at 30 nM in incubation buffer was added to the membranes and the mixture containing 1% of DMSO was incubated for another 30 minutes at 30° C. […] After 1 minute shaking and 30 minutes incubation at 30° C., flashplates were centrifuged for 5 minutes at 2500 rpm at room temperature. Flashplate bound radioactivity was determined by liquid scintillation counting. Basal GTPγS-binding was measured in 8 wells with membranes incubated in the same volume with 1% DMSO, without I-TAC. Maximal GTPγS-binding was measured in 8 wells with membranes incubated with 1% DMSO and 3 nM I-TAC. […] IC50 values were calculated using non-linear regression in Graphpad Prism.

Setting [1] is: -log IC50 (molar) inhibiting 50% of specific I-TAC-induced GTPγS-binding, membranes of human CXCR3-transfected CHO cells, read-out: pIC50 (converted).
The mark [2] stands for this setting: pIC50, -log IC50 (molar) inhibiting 50% of specific I-TAC-induced GTPγS-binding, membranes of human CXCR3-transfected CHO cells.
Where [3] appears, read: -log IC50 (molar) inhibiting 50% of specific I-TAC-induced GTPγS-binding, membranes of human CXCR3-transfected CHO cells.

SMILES strings stand for the structures. Like-named read-outs stand apart in the source and are kept apart here.

`O=C1CCC(c2ccc(F)cc2F)(C2CCN(Cc3ccc(Br)cc3)CC2)C(=O)N1` (racemic) [Compound 194]: the IC50 under setting [1] is 100 nM. Still for that read-out and setting: next, `O=C1CCC(c2ccc(F)cc2F)(C2CCN(Cc3ccc(Cl)c(F)c3)CC2)C(=O)N1` (racemic) [Compound 202]: 251 nM. Regarding `O=C1CCC(c2ccccc2)(C2CCN(Cc3ccc(Br)cc3)CC2)C(=O)N1` (single isomer, unassigned) [Compound 13], the IC50 under setting [2] is 316 nM. As for `O=C1CCC(c2ccccc2)(C2CCN(Cc3ccc(Br)cc3)CC2)C(=O)N1` (single isomer, unassigned) [Compound 14], under setting [1], the IC50 is 631 nM.

As for `CC(c1ccc(Br)cc1)N1CCC(C2(c3ccccc3)CCC(=O)NC2=O)CC1` (single isomer, unassigned) [Compound 17], the IC50 under setting [1] is 2000 nM. Still for that read-out and setting: for `CC(c1ccc(Br)cc1)N1CCC(C2(c3ccccc3)CCC(=O)NC2=O)CC1` (single isomer, unassigned) [Compound 18] the value was 398 nM; for `O=C1CCC(c2ccc(F)cc2F)(C2CCN(Cc3ccc(Br)cc3)CC2)C(=O)N1` (single isomer, unassigned) [Compound 166], 63.1 nM; for `CC(c1ccc(Br)cc1)N1CCC(C2(c3ccccc3)CCC(=O)NC2=O)CC1` (stereo not shown) [Compound 1], 398 nM. The molecule `O=C1CCC(c2ccncc2)(C2CCN(Cc3ccc(Br)cc3)CC2)C(=O)N1` (stereo not shown) [Compound 2] came in with a negative-log IC50 (pIC50) under setting [3] of 6.2.

In the case of `CC(c1ccc(Br)cc1)N1CCC(C2(c3ccc(F)cc3)CCC(=O)NC2=O)CC1` (stereo not shown) [Compound 3], the IC50 under setting [1] is 200 nM.

In the case of `O=C1CCC(c2cccnc2)(C2CCN(Cc3ccc(Cl)cc3)CC2)C(=O)N1` (stereo not shown) [Compound 4], the IC50 under setting [1] is 794 nM. The molecule `O=C1CCC(c2ccccc2)(C2CCN(Cc3ccc(Br)cc3)CC2)CN1` (stereo not shown) [Compound 5] gave a pIC50 under setting [3] of 6.3.

`COc1ccc(S(=O)(=O)O)cc1C1(C2CCN(Cc3ccc(Br)cc3)CC2)CCC(=O)NC1=O` (stereo not shown) [Compound 6]: the IC50 under setting [1] is 158 nM. On the same count and under the same terms, for `O=C1CCC(c2ccccc2)(N2CCN(Cc3ccc(Br)cc3)CC2)C(=O)N1` (stereo not shown) [Compound 7] the value was 251 nM. For the molecule `COc1cccc(C2(C3CCN(Cc4ccc(Br)cc4)CC3)CCC(=O)NC2=O)c1` (stereo not shown) [Compound 8], the IC50 under setting [2] is 1580 nM. Consider `Cc1cccc(C2(C3CCN(Cc4ccc(Br)cc4)CC3)CCC(=O)NC2=O)c1` (stereo not shown) [Compound 9], for which the IC50 (read-out: pIC50 (converted)) was 2000 nM. `O=C1CCC(c2ccccc2)(C2CCN(Cc3ccc(Br)cc3)CC2)C(=O)N1` (stereo not shown) [Compound 10] showed an IC50 under setting [2] of 316 nM.

As to `CC(c1ccc(Br)cc1)N1CCC(C2(c3ccccc3)CCCNC2=O)CC1` (stereo not shown) [Compound 11], the IC50 under setting [1] was 794 nM. Same read-out and setting: next, `O=C1CCC(c2ccc(F)cc2)(C2CCN(Cc3ccc(Br)cc3F)CC2)CN1` (stereo not shown) [Compound 15]: 398 nM; `O=C1CCC(c2ccccc2)(C2CCN(Cc3ccc(Br)c(F)c3)CC2)C(=O)N1` (stereo not shown) [Compound 16a]: 316 nM. Consider `O=C1CCC(c2ccccc2)(C2CCN(Cc3ccc(Cl)cc3)CC2)C(=O)N1` (stereo not shown) [Compound 19], for which, under setting [1], the IC50 was 1260 nM. On the same count and under the same terms, next, `O=C1CCC(c2ccccc2)(C2CCN(Cc3ccc(Cl)cc3)CC2)C(=O)N1` (stereo not shown) [Compound 20]: 794 nM. Take `O=C1CCC(c2cccc(C(=O)O)c2)(C2CCN(Cc3ccc(Cl)c(F)c3)CC2)C(=O)N1` (stereo not shown) [Compound 22]: the IC50 under setting [1] was 251 nM. Take `O=C1CCC(c2cccc(C(=O)O)c2)(C2CCN(Cc3ccc(Br)cc3)CC2)C(=O)N1` (stereo not shown) [Compound 23]: under setting [3], the pIC50 was determined as 6.2. Regarding `CC(=O)Nc1ccccc1C1(C2CCN(Cc3ccc(Br)cc3)CC2)CCC(=O)NC1=O` (stereo not shown) [Compound 24], the IC50 under setting [1] is 1000 nM. The same measure, in the same setting: for `O=C1CCC(c2ccc(F)cc2)(C2CCN(Cc3ccc(Cl)c(F)c3)CC2)C(=O)N1` (stereo not shown) [Compound 26] the value was 200 nM.

Consider `O=C1CCC(c2ccccc2)(N2CCN(Cc3ccc(Cl)c(F)c3)CC2)C(=O)N1` (stereo not shown) [Compound 27], for which, under setting [1], the IC50 is 2510 nM. For the molecule `O=C1CCC(c2ccccc2)(C2CCN(Cc3ccc4ccccc4c3)CC2)C(=O)N1` (stereo not shown) [Compound 28], the IC50 under setting [1] is 3980 nM. As for `O=C1CCC(c2ccccn2)(C2CCN(Cc3ccc(Cl)c(F)c3)CC2)C(=O)N1` (stereo not shown) [Compound 29], the IC50 under setting [1] is 794 nM. Consider `O=C1CCC(c2ccccn2)(C2CCN(Cc3ccc(Br)cc3)CC2)C(=O)N1` (stereo not shown) [Compound 30], for which, under setting [3], the pIC50 is 6.3. On to `O=C1CCC(c2ccccc2)(C2CCN(Cc3ccc(Cl)c(F)c3)CC2)C(=O)N1` (stereo not shown) [Compound 31], for which, under setting [1], the IC50 is 200 nM. Take `CNC(=O)c1cccc(C2(C3CCN(Cc4ccc(Br)cc4)CC3)CCC(=O)NC2=O)c1` (stereo not shown) [Compound 32]: under setting [3], the pIC50 was determined as 5.5. Still for that read-out and setting: for `NC(=O)c1cccc(C2(C3CCN(Cc4ccc(Br)cc4)CC3)CCC(=O)NC2=O)c1` (stereo not shown) [Compound 33] the value was 5.5. As for `CN1CCN(C(=O)c2cccc(C3(C4CCN(Cc5ccc(Br)cc5)CC4)CCC(=O)NC3=O)c2)CC1` (stereo not shown) [Compound 34], the IC50 under setting [1] is 1260 nM. The molecule `Nc1cccc(C2(C3CCN(Cc4ccc(Br)cc4)CC3)CCC(=O)NC2=O)c1` (stereo not shown) [Compound 35] gave an IC50 under setting [2] of 316 nM. For `COC(=O)c1ccc(CN2CCC(C3(c4ccccc4)CCC(=O)NC3=O)CC2)cc1` (stereo not shown) [Compound 36], the IC50 under setting [1] is 1260 nM. In turn, `O=C1CCC(c2cccc(C(=O)N3CCOCC3)c2)(C2CCN(Cc3ccc(Br)cc3)CC2)C(=O)N1` (stereo not shown) [Compound 37] returned a negative logarithm of the IC50 (pIC50) under setting [3] of 6.1. Same read-out and setting: for `CSCN1C(=O)CCC(c2ccccc2)(C2CCN(Cc3ccc(Br)cc3)CC2)C1=O` (stereo not shown) [Compound 38] the value was 6.0; for `O=C1CCC(c2cccc(O)c2)(C2CCN(Cc3ccc(Br)cc3)CC2)C(=O)N1` (stereo not shown) [Compound 39], 6.0.

For `O=C1CCC(c2ccccc2)(C2CCN(Cc3ccc(F)cc3)CC2)C(=O)N1` (stereo not shown) [Compound 43], the IC50 under setting [1] was 3160 nM.

With `O=C1CCC(c2ccccc2)(C2CCN(Cc3ccc(F)cc3)CC2)C(=O)N1` (stereo not shown) [Compound 44], the IC50 under setting [1] is 5010 nM.

As for `O=C1CCC(c2ccccc2)(C2CCN(Cc3ccc(F)cc3)CC2)C(=O)N1` (stereo not shown) [Compound 45], the IC50 under setting [1] is 3980 nM. Same read-out and setting: for `COc1cc(F)ccc1CN1CCC(C2(c3ccccc3)CCC(=O)NC2=O)CC1` (stereo not shown) [Compound 46] the value was 3980 nM; for `O=C1CCC(c2ccccc2)(C2CCN(Cc3ccc(F)c(F)c3)CC2)C(=O)N1` (stereo not shown) [Compound 47], 2000 nM; for `O=C1CCC(c2ccc(F)cc2)(C2CCN(Cc3ccc(F)c(F)c3)CC2)C(=O)N1` (stereo not shown) [Compound 49], 3980 nM. The same measure, in the same setting: for `O=C1CCC(c2ccccc2)(C2CCN(Cc3ccc(F)c(F)c3F)CC2)C(=O)N1` (stereo not shown) [Compound 50] the value was 1580 nM; for `O=C1CCC(c2cccc(Cl)c2)(C2CCN(Cc3ccc(F)c(F)c3F)CC2)C(=O)N1` (stereo not shown) [Compound 51], 2510 nM; for `Cc1cccc(C2(C3CCN(Cc4ccc(F)c(F)c4F)CC3)CCC(=O)NC2=O)c1` (stereo not shown) [Compound 52], 1260 nM. Still for that read-out and setting: next, `COc1cccc(C2(C3CCN(Cc4ccc(F)c(F)c4F)CC3)CCC(=O)NC2=O)c1` (stereo not shown) [Compound 53]: 2000 nM. For the molecule `O=C1CCC(c2ccc(F)cc2)(C2CCN(Cc3ccc(F)c(F)c3F)CC2)C(=O)N1` (stereo not shown) [Compound 54], under setting [1], the IC50 was 1260 nM. Still for that read-out and setting: for `O=C1CCC(c2ccccc2)(C2CCN(Cc3ccc(F)c(Cl)c3)CC2)C(=O)N1` (stereo not shown) [Compound 55] the value was 3160 nM; for `O=C1CCC(c2ccc(F)cc2)(C2CCN(Cc3ccc(F)c(Cl)c3)CC2)C(=O)N1` (stereo not shown) [Compound 56], 5010 nM. On the same count and under the same terms, for `O=C1CCC(c2ccccc2)(C2CCN(Cc3ccc(F)c(Br)c3)CC2)C(=O)N1` (stereo not shown) [Compound 57] the value was 3980 nM; for `O=C1CCC(c2ccc(F)cc2)(C2CCN(Cc3ccc(F)c(Br)c3)CC2)C(=O)N1` (stereo not shown) [Compound 58], 7940 nM; for `Cc1cc(CN2CCC(C3(c4ccccc4)CCC(=O)NC3=O)CC2)ccc1F` (stereo not shown) [Compound 59], 1260 nM. As for `COc1cc(CN2CCC(C3(c4ccccc4)CCC(=O)NC3=O)CC2)ccc1F` (stereo not shown) [Compound 60], under setting [1], the IC50 was 3160 nM. Same read-out and setting: for `O=C1CCC(c2ccccc2)(C2CCN(Cc3ccc(Cl)cc3)CC2)C(=O)N1` (stereo not shown) [Compound 61] the value was 1000 nM.

On to `O=C1CCC(c2ccccc2)(C2CCN(Cc3ccc(Cl)cc3)CC2)C(=O)N1` (stereo not shown) [Compound 62], for which, under setting [1], the IC50 was 794 nM.
